Assay: Stability assessed as half life at pH 7.4
Type: physicochemical
Details: buffer

`CC(Cc1ccc(O)c(O)c1)C(C)Cc1ccc(O)c(O)c1` (stereo unspecified) [NORDIHYDROGUAIARETIC ACID] showed a half-life of 3 h.

— ChEMBL document CHEMBL1156599, “Nordihydroguaiaretic acid autoxidation produces a schisandrin-like dibenzocyclooctadiene lignan” (J Nat Prod, 2008)
